Measured values published in publication PMC11481179, “Development and Application of Reversible and Irreversible Covalent Probes for Human and Mouse Cathepsin‐K Activity Detection, Revealing Nuclear Activity” (Advanced Science, 2024).

Legend:
[1] = target: T1, CTSK (Homo sapiens, UniProt P43235); experiment: In vitro kinetic evaluation of cathepsin inhibition, fluorescent substrate Z-FR-AMC; assay type: biochemical
T1 sequence (P43235 115-329): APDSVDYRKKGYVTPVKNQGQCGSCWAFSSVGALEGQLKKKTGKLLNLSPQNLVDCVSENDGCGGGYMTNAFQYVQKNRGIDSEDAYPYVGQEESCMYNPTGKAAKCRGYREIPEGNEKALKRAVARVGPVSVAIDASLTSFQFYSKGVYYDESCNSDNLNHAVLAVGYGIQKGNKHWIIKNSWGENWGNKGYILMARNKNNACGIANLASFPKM
Text: (§1) used for TLC. Phosphate Buffer Saline (PBS) was purchased from Biological Industries (pH = […]
(§2) 7.4) and was used as a buffer system in all experiments if not indicated otherwise. […]
(§3) Recombinant human CTSB, CTSK, CTSL, and CTSS were supplied by B. Turk (J.
(§4) Stefan Institute).[1] […]
Fluorescent gels were scanned by a Typhoon FLA 9500 flatbed laser scanner (GE Healthcare […]
Bio-Sciences AB, Uppsala, Sweden). BioRad ChemiDox XRS+ was used for western blot […]
analysis. Olympus FV10i inverted microscope (Tokyo,Japan) with Fluoview software or Zeiss […]
Confocal LSM 980 with Airyscan (Germany) with Zen software were used for confocal […]
(§5) In vitro kinetic evaluation of labeling recombinant cathepsins:
(§6) Reactions were monitored for 30 min at 37° C in 96-well black flat-bottom microplates […]
(Greiner, Germany) using Tecan […] M1000 pro plate reader (Tecan, Switzerland), […]
(§7) substrates Z-RR-AMC (CTSL) or Z-FR-AMC (CTSS, CTSB and CTSK), and excitation and […]
emission wavelengths of 370 and 460 nm, respectively. Cathepsin concentrations in the assay were 0.4 nM (CTSK) or 5 nM (CTSS, CTSB, and CTSL). The buffer was 100 mM Na2HPO4/NaH2PO4, 50 mM NaCl, 5 mM DTT, 0,1% Peg-6000, pH 6. For irreversible inhibitors, reaction data were fitted to the one-phase association formula in GraphPad Prism 9 software: Y=Y0 + (Plateau-Y0)*(1-exp(-K*X)) where in this case Y0 and Y represent fluorescence signal at times 0 and t, respectively, K represent the observed reaction rate kobs and X the inhibitor concentration. Inactivation rates at each inhibitor concentration were […]
maximal rate of inactivation (kinact) was obtained as the asymptote from equation […]
for each X, and Kiapp is the apparent inhibition constant. Ki values were calculated from IC50 or from Kiapp using formulas Ki = Kiapp / (1 + Km/S) and IC50 = E0/2 + Kiapp, where Km stands for Michalis-Menten constant, S for substrate concentration and E0 for cathepsin concentration.
(§8) The highest inhibitor concentrations in the assay were 50 µM. Measurements were performed in several independent duplicates. Average values are presented with standard deviations. […]

[2] = target: CTSS (Homo sapiens, UniProt P25774); experiment: as above; assay type: biochemical
CTSS, sequence (P25774 115-331): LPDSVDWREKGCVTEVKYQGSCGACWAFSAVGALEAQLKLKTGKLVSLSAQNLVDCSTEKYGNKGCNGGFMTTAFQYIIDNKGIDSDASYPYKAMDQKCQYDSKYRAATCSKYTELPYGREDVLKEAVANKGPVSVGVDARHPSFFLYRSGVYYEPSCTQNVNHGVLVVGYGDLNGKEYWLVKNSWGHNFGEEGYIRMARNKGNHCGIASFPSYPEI
Protocol: as §1, §2, §3, §4, §5, §6
(Greiner, Germany) using Tecan INFINITE M1000 pro plate reader (Tecan, Switzerland), […]
as §7
emission wavelengths of 370 and 460 nm, respectively. Cathepsin concentrations in the assay were 0.4 nM (CTSK) or 5 nM (CTSS, CTSB, and CTSL). The buffer was 100 mM Na2HPO4/NaH2PO4, 50 mM NaCl, 5 mM DTT, 0,1% Peg-6000, pH 6. For irreversible inhibitors, reaction data were fitted to the one-phase association formula in GraphPad Prism 9 software: Y=Y0 + (Plateau-Y0)*(1-exp(-K*X)) where in this case Y0 and Y represent fluorescence signal at times 0 and t, respectively, K represent the observed reaction rate kobs and X the inhibitor concentration. Inactivation rates at each inhibitor concentration were obtained by subtracting the inactivation observed in the control sample: kobs – kctrl. The maximal rate of inactivation (kinact) was obtained as the asymptote from equation Y = kinact*X/(Kiapp + X) where X is inhibitor concentration, Y is the observed inactivation rate for each X, and Kiapp is the apparent inhibition constant. Ki values were calculated from IC50 or from Kiapp using formulas Ki = Kiapp / (1 + Km/S) and IC50 = E0/2 + Kiapp, where Km stands for Michalis-Menten constant, S for substrate concentration and E0 for cathepsin concentration.
as §8

[3] = target: T2, endogenous CTSK in intact U-2 OS cells (Homo sapiens, UniProt P43235); experiment: Labeling of endogenous CTSK in intact cells, fluorescent SDS-PAGE; assay type: cell-based; conditions: inhibitor 5 µM, 2 h, then GD32 5 µM
T2 construct: ability to label endogenous CTSK activity in intact cells; endogenous in cells; host or cells: U-2 OS
T2 sequence (P43235 115-329): T1 sequence (P43235 115-329)
Protocol: To test probe selectivity and the ability to label endogenous CTSK activity in intact cells, three cell lines were selected: human osteosarcoma MG‐63 and U‐2 OS, and human glioblastoma U‐87 MG; all cell lines express CTSK along with other lysosomal cathepsins.^[ [44] ^] First, the ABPs were incubated with intact U‐2 OS cells for different durations of time, and the probe selectivity toward CTSK was examined, with a pan cathepsin ABP, GB123, used as a control that labels CTS B, K, L, and S in cells. After cell lysis, the probe‐labeled enzymes were resolved and detected by a fluorescent scan of the SDS‐PAGE. […] Specifically, intact MG‐63 cells required a 5 h incubation (Figure 2b,c), while U‐87 MG cells required a 2 h incubation (Figure 2d).
Figure 2 Labeling of endogenous CTSK in intact cells. a) U2‐OS cells were treated with DMSO or 5 µM of the indicated inhibitors in culture medium, for 2 h, then with indicated ABPs [5 µM] in a culture medium for indicated times, followed by cell lysis, SDS‐PAGE separation, and fluorescent scanning of the gel at 635/670 nm. An immunoblot of CTSK of the same gel is presented below. b) Intact MG63 cells were treated with GD32 5 µM in the culture media for indicated times, cell lysates were analyzed as in a. CTSK immunoblot is presented, pro and mature CTSK are indicated by arrows. c) MG63 cells and d) U87MG cells were treated with DMSO, or 5 µM of indicated inhibitors in culture medium for 2 h, followed by incubation with 5 µM of indicated probes for 5 h (GD32 and GD42) and 2 h (GB123), cell lysates were analyzed by fluorescent SDS PAGE as in a. […] In (c) a CTSK immunoblot of a representative MG63 lane on the right. e) Labeling of active mature CTSK by GD32 in A549 and U2‐0S cells in externally adjusted different pH. Cells were incubated with 5 µM GD32 for 24 h in growth media at indicated pHs, prior to the cell lysis, cell lysates were analysed as in a. CTSK immunoblot below. f) A549 cells were incubated with increasing concentrations of GD30 for 2 h at pH = 5, followed by the incubation with 5 µM GD32 for 24 h prior to the cell lysis, cell lysates were analyzed as in a. g) Intact U‐87 MG cells or U‐87 MG cell lysates were treated with 5 µM GD32 for 2 h, the intact cells were then lysed and all lysates were analyzed as in (a). h) Intact or lysates of U‐87MG were treated with GD32 for 2 h then immunoprecipitation was done with an anti‐CTSK antibody. Input (I), immunoprecipitation (IP), and output (O) were separated by a 14% SDS‐PAGE and scanned for fluorescence. The gel was then blotted and reacted with an anti‐cystatin B antibody below. ODN (Odanacatib), GB111 (GB111‐NH2), mCTSK (mature CTSK). […]
deoxycholate). After adding sample buffer, samples were boiled for 10 minutes, and analyzed […]
lysates were analyzed as described above. […]

[4] = tested on: U-87 MG cells; experiment: Cell viability assay (methylene blue); assay type: cell-based, human; conditions: 48 h incubation
Protocol: U-2 OS, U-87 MG, and enriched monocyte cells were grown at 370 C with 5% of CO2 in the
respective medium as described previously. Cells were seeded (1500 cells/well in 96 wells
plate) one day before the incubation with indicated probe or inhibitor at various concentrations.
After 48 h cells were fixed, and viability was measured by quantitative colorimetric assay using
methylene blue according to the procedure reported by Ben-Bassat et al. The data were
expressed as a percentage of control; data represent the mean of 2 experiments with triplicates
for each treatment (± standard deviation).
Fluorescent imaging of CTSK activity in lung tissue: Freshly resected human lung cancer and
normal lung tissues or mouse normal lung and primary lung cancer were embedded in OCT,
frozen in liquid nitrogen, and kept at - 80° C. Tissues were sectioned into 10 μm thick slices
using a cryostat (Leica). The slides were defrosted and washed with 1X PBS. Then the slides
were pretreated with DMSO or GD30 (5 µM) in buffer acetate for 1 h at 37° C. Afterward,
GD32 (0.75uM) or DMSO in buffer acetate were applied to the slides for 4 h at 37° C. Three
short washes with 1X PBS were done and the slides were left in 1X PBS for overnight
incubation at 4° C. The next day, slides were mounted with DAPI-Fluoromount-G® before
visualization by confocal microscopy. Olympus FV10i was used for human samples, whereas
Zeiss was used for mouse samples.
Details of the synthesis of the compounds
Synthesis of Compound (2)

| SMILES | mode of inhibition ([1]; CTSK) | IC50 ([1]; CTSK 0.4 nM, tight binding) [nM] | mode of inhibition ([2]; CTSS) | IC50 ([2]; CTSS 5 nM) [nM] | effect of inhibitor preincubation on GD32-labeled CTSK band [3] | cytotoxicity [4] |
| --- | --- | --- | --- | --- | --- | --- |
| CC(C)(F)C[C@H](N[C@@H](c1ccc(-c2ccc(S(C)(=O)=O)cc2)cc1)C(F)(F)F)C(=O)NC1(C#N)CC1 [ODN, odanacatib, reference compound] | Reversible [Tight binding] | 0.94 | Reversible | 140 | depletion of the CTSK‐specific band |  |
| Cc1cccc(C)c1C(=O)OCC(=O)[C@H](CCCCN)NC(=O)[C@H](Cc1ccccc1)NC(=O)OCc1ccccc1 [GB111‐NH2, reference compound] |  |  |  |  | depletion of the CTSK‐specific band | exhibited cytotoxicity |
